The text below walks through data of patent US8592446B2, “[1,10]-phenanthroline derivatives for the treatment of neurodegenerative or haematological diseases” (Noscira, S.A., priority 2007, dated 2013).

Structures are written as SMILES. Where two headings read alike, the source gives them in different places.

Assay type in all cases: cell-based
For data set [1], the system named is SH-SY5Y human neuroblastoma cells. Nature of the data set: Toxicity: LDH activity release in SH-SY5Y cells. Conditions: 24 h; for Maximum concentration tested for toxicity: increasing concentrations from 1 μM up to 1 mM. Here is the method:
The potential effects on cell viability of the assayed compounds are assayed in SH-SY5Y human neuroblastoma cells, by quantification of Lactate dehydrogenase (LDH) activity release. SH-SY5Y human neuroblastoma cells are seeded into 96-well culture plates at 10^4 cells/well. The medium is then removed and the cells incubated with different concentrations of the compounds during 24 h. The compounds are tested at increasing concentrations starting from 1 μM, in fresh culture medium, in order to find the minimum concentration at which the compounds are toxic, up to a maximum of 1 mM. After 24 h, the medium is removed and cells attached to the bottom of the well are lysed by adding 50 μl of Krebs-Hepes; Triton X-100 1% during 5 minutes at room temperature. For LDH release quantification, the Roche cytotoxicity detection kit (Cat.
No. 11 644 793 001) is used. The LDH activity is measured by its absorbance at 492 nm with reference wavelength 620 nm.
In Table 1, for each compound the maximum concentration at which toxicity was tested is indicated in the second column. In the third column, it is indicated whether at this maximum concentration the compound was toxic or not. All the compounds, with the exception of Compound 3, resulted non-toxic at the concentration for which activity was found, in most of the cases even at a 1000-fold concentration. Thus, the compounds may be considered non-toxic.

Data set [2] has the same test system. Description: Protection against hydrogen peroxide-induced cell death (LDH). Conditions: compound 1 h before H2O2 100 μM, 24 h; for minimal effective concentration: Homo sapiens, SH-SY5Y, read-out: Protect. H2O2 (minimum concentration for which protection was determined). Here is the method: The aim of this assay is to determine the neuroprotective effect of the compounds of formula (I), when human neuroblastoma cells are exposed to oxidative stress induced by hydrogen peroxide, which is highly deleterious to the cell and its accumulation causes oxidation of cellular targets such as DNA, proteins, and lipids leading to mutagenesis and cell death.
SH-SY5Y human neuroblastoma cells are seeded into 96-well culture plate at a density of 10^4 cells/well. Cells are exposed to different concentrations of the compound one hour before the treatment with H2O2 100 μM during 24 h. 5 mM N-acetylcysteine (NAC), a known anti-oxidant agent was used as a positive control, and preincubated 1 hour before the treatment with H2O2. After 24 h, the medium is removed and cells attached to the bottom of the well are lysed by adding 50 μl of Triton X-100 1% in Krebs-Hepes during 5 minutes at room temperature. For LDH release quantification, Roche cytotoxicity detection kit (Cat. No. 11 644 793 001) was used.

Data set [3] has the same test system. Description: Protection against 6-OHDA-induced cell death, condition A (10% foetal bovine serum). Particulars: preincubated 2 hours, 6-OHDA 75 μM 16 hours, read-out: Protect. 6-OHDA (+ FBS) (minimum concentration with neuroprotective effect). The source says: (§1) The aim of this experiment is to determine the protective effect of the compounds of formula (1) against the toxicity caused by 6-OHDA. This toxin induces a cell death similar to which occurs in Parkinson's disease, destroying dopaminergic neurons (“MPTP and 6-hydroxydopamine-induced neurodegeneration as models for Parkinson's disease: neuroprotective strategies”; Grunblatt E, et al.; J Neurol. 2000 Apr; 247 Suppl 2:II95-102).
(§2) Two or three days before the experiment, the SH-SY5Y human neuroblastoma cells are seeded into 96-well culture plate at a density of 10^4 cells/well. Cells are exposed to the treatment with 6-OHDA and, finally, cell death is measured by LDH quantification. As positive control we used NAC.
• A) NAC and the compound of formula (I) are preincubated during 2 hours before the treatment with 6-OHDA 75 μM during 16 hours. The assay is performed in medium containing 10% Foetal bovine serum.
(§3) For each compound the minimum concentration of compound of formula (I) at which a neuroprotective effect is shown.

For data set [4] the test system is unchanged. Description: Protection against 6-OHDA-induced cell death, condition B (no fetal bovine serum). Particulars: preincubated 1 hour, 6-OHDA 50 μM 24 hours, read-out: Protect. 6-OHDA (−FBS) (minimum concentration with neuroprotective effect).
From the text: as §1, §2
• B) NAC and the compound of formula (I) are preincubated during 1 hour before the treatment with 6-OHDA 50 μM during 24 hours. The assay is performed in a medium without any fetal bovine serum.
as §3

The subject of data set [5] is SH-SY5Y cells. Nature of the data set: Neuroprotection against Aβ25-35 toxicity (LDH assay). Conditions: Homo sapiens, pre-treated 1 hour, 200 μM Aβ25-35 24 hours, read-out: Protect. beta-Amyloid25-35 (minimum concentration showing neuroprotection). Here is the method: In order to evaluate potential neuroprotection of compounds, SH-SY5Y cells, cultured in 96-well plates, were pre-treated for 1 hour with the compound at different concentrations and then exposed 24 hours to 200 μM Aβ25-35 (Neosystem) to induce extensive oxidative stress and cell death. The ability of the compound of protecting against this toxicity is then evaluated by measuring intracellular LDH, using the colorimetric LDH assay.
It is widely accepted that the neurotoxic activity of Aβ resides within amino acids 25-35 (see e.g. Yankner B A et al., (1990) Neurotrophic and neurotoxic effects of amyloid β protein: reversal by tachykinin neuropeptides; Science 250:279-282).

Data set [6] relates to Aβ (1-40) secretion by CHO7W cells (stably transfected with human APP751 wt cDNA). Nature of the data set: Inhibition of Aβ(1-40) secretion (ELISA, cellular supernatants). Conditions: Aβ 1-40 ELISA, read-out: Inhibition secretion beta-amyloid (minimum concentration). The source says: To quantitate Aβ secretion ELISA-based method was used. The assay consists in detection of antigen by selective monoclonal anti-Aβ-antibodies at two different epitopes forming a “Sandwich-complex”, that is detected by colorimetric measure due to the binding of a secondary antibody conjugated with peroxidase that catalyses the conversion of a substrate or chromogen, TMB, into a coloured product, directly proportional to the peptide quantity in the sample. The Aβ production has been analyzed by ELISA, using a colorimetric commercial kit: Immunoassay Kit Human β Amyloid 1-40 (Biosource).
Aβ (1-40) were quantified from cellular supernatants. An APP-transfected cell line has been employed for the experiments: CHO7W (stably transfected with human APP751 wt cDNA). The cells were grown in a culture medium consisting of DMEM supplemented with 2% Fetal bovine serum, 1% penicillin-streptomycin, 1% L-glutamine and 200 μg/ml G418. Cells are seeded in 96-well culture microplate, at 5000 cells/well and treatment with different compounds at different concentrations is performed 24 hour after seeding.
OM99-2 (H-5108, Bachem), a BACE inhibitor, was used as Aβ secretion reduction positive control in all the Aβ secretion studies. The cells were treated with this compound at 3 μM concentration, culture media were collected at 24 hours.
On the technique in general: In an ELISA, binding on a coated surface is turned into a signal by an enzyme label.

Regarding `ON=Cc1cc(SCC(F)(F)F)c2ccc3cccnc3c2n1` [Compound 13, 4-(2,2,2-Trifluoro-ethylsulfanyl)-[1,10]phenanthroline-2-carbaldehyde oxime], the “Maximum concentration tested for toxicity” value in data set [1] was found to be 1000 µM. Further, the “Toxic at maximum concentration tested (Yes/No)” value (“Toxic … (Yes/No)” below) in data set [1] (at 1000 μM) is recorded as “No”. The minimal effective concentration is 0.5 µM in data set [2]; 0.5 µM in data set [3]; 5 µM in data set [4]; 5 µM in data set [5]; 10 µM in data set [6] (Homo sapiens, CHO-7W).

For `ON=Cc1cc(Sc2nccs2)c2ccc3cccnc3c2n1` [Compound 15, 4-(Thiazol-2-ylsulfanyl)-[1,10]phenanthroline-2-carbaldehyde oxime], the “Maximum concentration tested for toxicity” value in data set [1] worked out at 100 µM. In data set [1] (at 100 μM), the “Toxic … (Yes/No)” value is “Yes”. Further, the minimal effective concentration in data set [2] stood at 0.5 µM; in data set [6] (Homo sapiens, CHO-7W) it was 10 µM.

Consider `CSc1cc(C=O)nc2c1ccc1cccnc12` [Compound 20, 4-Methylsulfanyl-[1,10]phenanthroline-2-carbaldehyde], for which the “Maximum concentration tested for toxicity” value in data set [1] is 10 µM. In data set [1] (at 10 μM), the “Toxic … (Yes/No)” value was “Yes”. For the same compound, the minimal effective concentration turned out to be 0.5 µM in data set [2] and 10 µM in data set [6] (Homo sapiens, CHO-7W).

As to `CN(C)C(=O)CSc1cc(C=NO)nc2c1ccc1cccnc12` [Compound 12, 2-[2-(Hydroxyimino-methyl)-[1,10]phenanthrolin-4-ylsulfanyl]-N,N-dimethyl-acetamide], the “Maximum concentration tested for toxicity” value in data set [1] amounted to 1000 µM. For the same compound, the “Toxic … (Yes/No)” value in data set [1] (at 1000 μM) is reported as “No”. Moreover, the minimal effective concentration was 0.1 µM in data set [2]; 0.1 µM in data set [3]; 0.5 µM in data set [4]; 10 µM in data set [5]; 1 µM in data set [6] (Homo sapiens, CHO-7W).

`COC(=O)CSc1cc(C=NO)nc2c1ccc1cccnc12` [Compound 14, [2-(Hydroxyimino-methyl)-[1,10]phenanthrolin-4-ylsulfanyl]-acetic acid methyl ester]: the “Maximum concentration tested for toxicity” value in data set [1] amounted to 1000 µM. In addition, in data set [1] (at 1000 μM), the “Toxic … (Yes/No)” value is recorded as “Yes”. Besides, the minimal effective concentration in data set [2] came to 0.05 µM; in data set [3], 0.5 µM; in data set [4] it was 0.5 µM; in data set [5], 10 µM; in data set [6] (Homo sapiens, CHO-7W) it was 0.01 µM.

Take `CCCSc1cc(/C=N/O)nc2c1ccc1cccnc12` [Compound 5, 4-Propylsulfanyl-[1,10]phenanthroline-2-carbaldehyde oxime]: the “Maximum concentration tested for toxicity” value in data set [1] stood at 1000 µM. The “Toxic … (Yes/No)” value in data set [1] (at 1 mM) was “Yes”. Further, the “Protect. H2O2 (minimum concentration for which protection was determined)” value in data set [2] stood at 5 nM. Further, the minimal effective concentration in data set [3] came to 0.05 µM; in data set [4], 0.5 µM; in data set [6], 0.001 µM.

As for `CCOc1cc(/C=N/O)nc2c1ccc1cccnc12` [Compound 6, 4-Ethoxy-[1,10]phenanthroline-2-carbaldehyde oxime], the “Maximum concentration tested for toxicity” value in data set [1] turned out to be 1000 µM. Also, in data set [1] (at 1 mM), the “Toxic … (Yes/No)” value is “Yes”. Besides, the “Protect. H2O2 (minimum concentration for which protection was determined)” value in data set [2] was found to be 5 nM. In addition, the minimal effective concentration in data set [3] was 0.05 µM; in data set [4], 0.5 µM; in data set [5], 10 µM; in data set [6], 0.01 µM.

For `O=C(O)CSc1cc(C=NO)nc2c1ccc1cccnc12` [Compound 16, [2-(Hydroxyimino-methyl)-[1,10]phenanthrolin-4-ylsulfanyl]-acetic acid], the “Maximum concentration tested for toxicity” value in data set [1] was 10 µM. Further, the “Toxic … (Yes/No)” value in data set [1] (at 10 μM) is “Yes”. The minimal effective concentration in data set [2] was found to be 0.05 µM; in data set [3], 0.5 µM; in data set [4] it was 10 µM; in data set [5], 5 µM; in data set [6] (Homo sapiens, CHO-7W), 1 µM.

Consider `Cc1cnc(Sc2cc(C=NO)nc3c2ccc2cccnc23)s1` [Compound 17, 4-(5-Methyl-thiazol-2-ylsulfanyl)-[1,10]phenanthroline-2-carbaldehyde oxime], for which the “Maximum concentration tested for toxicity” value in data set [1] is 1000 µM. Besides, the “Toxic … (Yes/No)” value in data set [1] (at 1000 μM) is on record as “Yes”. In addition, the minimal effective concentration was 5 µM in data set [2] and 10 µM in data set [6] (Homo sapiens, CHO-7W).

With `ON=Cc1cc(Sc2nncs2)c2ccc3cccnc3c2n1` [Compound 19, 4-([1,3,4]Thiadiazol-2-ylsulfanyl)-[1,10]phenanthroline-2-carbaldehyde oxime], the “Maximum concentration tested for toxicity” value in data set [1] came to 10 µM. The “Toxic … (Yes/No)” value in data set [1] (at 10 μM) was “Yes”. The minimal effective concentration in data set [2] was found to be 0.5 µM; in data set [6] (Homo sapiens, CHO-7W) it was 1 µM.

Turning to `O=Cc1cc(Cl)c2ccc3cccnc3c2n1` [Compound 3, 4-Chloro-[1,10]phenanthroline-2-carbaldehyde], in data set [1], the “Toxicity at the concentration for which activity was found” value is “exception” and the “Maximum concentration tested for toxicity” value came out at 10 µM. Further, the “Toxic … (Yes/No)” value in data set [1] (at 10 μM) is “Yes”. The minimal effective concentration in data set [2] worked out at 10 µM. Further, in data set [4], the minimal effective concentration was found to be 10 µM.
